PubChem BioAssay (NCI)
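Values below derive from 48-hour exposures of cells grown in 96-well plates, with endpoints linearly interpolated between the two concentrations bracketing the appropriate inhibition level. Abbreviation: GI50, concentration required for 50% inhibition of growth. TGI denotes the concentration required for complete inhibition of growth.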

System: MDA-MB-468 breast
Assay: NCI anticancer screen, dose series, 48 h

Row | Compound | GI50 [µM] | TGI [µM]
1 | O=C1NC(=O)C(c2ccccc2Cl)=C1Nc1cc(Cl)c(O)c(Cl)c1 | 6.29 | > 21.4
2 | CCN(Cc1ccccc1)c1ccc(CO)c(Cl)c1 | 0.0202 | 0.0559
3 | COc1ccc(NC([Se])=NC23CC4CC(CC(C4)C2)C3)cc1 | 1.35 | 3.42
4 | COc1cc(N2CCC(N3CCN(C)CC3)CC2)ccc1Nc1ncnc(Nc2ccccc2S(=O)(=O)C(C)C)n1 | 4.78 | 20.3
5 | C=C1C(=O)O[C@H]2[C@H]1CC/C(COC(=O)c1cc3ccccc3o1)=C\CC[C@@]1(C)O[C@@H]21 | 1.5 | 3.72
